# Assay results from publication PMC9501633, “Synthesis, Characterisation and Mechanism of Action of Anticancer 3-Fluoroazetidin-2-ones” (Pharmaceuticals, 2022).
# Test system: survivin
# Assay: Western blot of apoptosis regulatory proteins in MCF-7 cells
# Assay type: cell-based, human
# Details: MCF-7, 0.05, 0.1 and 0.5 μM, dose- and time-dependent
# Excerpt: Survivin is a member of the inhibitor of apoptosis (IAP) protein family. It is an essential anti-apoptotic protein marker that is overexpressed in most tumour cells and is associated with a poor clinical outcome. Survivin inhibits caspase activation, which is used as an indicator of apoptosis cascades. Survivin selective inhibitor molecules have been identified as cancer therapeutics, including survivin–partner protein interaction inhibitors, survivin homodimerisation inhibitors, survivin gene transcription inhibitors and survivin mRNA inhibitors. We examined the effect of a range of concentrations of compound 33 (0.05, 0.1 and 0.5 μM) on the level of survivin expressed.
# Western blot analysis was performed according to the protocols we previously described. MCF-7 cells were seeded at a density of 1 × 10^5 cells/flask in T25 flasks. After 48 h, whole cell lysates were prepared from untreated cells or cells treated with vehicle control (EtOH, 0.1% v/v) or cells treated with compound 33 (0.05 μM, 0.1 μM and 0.5 μM). […] Equal amounts of protein (as determined by a BCA assay) were resolved by SDS-PAGE (12%) followed by transfer to PVDF membranes. […] Proteins were detected using enhanced chemiluminescent Western blot detection (Clarity Western ECL substrate) (Bio-Rad) on the ChemiDoc MP System (Bio-Rad). […]
smiles,measurement,value
"COc1ccc(C2C(F)C(=O)N2c2cc(OC)c(OC)c(OC)c2)cc1F (stereo not shown) [Compound 33, 3-Fluoro-4-(3-fluoro-4-methoxyphenyl)-1-(3,4,5-trimethoxyphenyl)azetidin-2-one]",survivin expression,downregulation
